Here are results for ten molecules from ChEMBL document CHEMBL1201862, “PubChem BioAssay data set” (2004).

Structures are written as SMILES.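 Where inhibition never reached the appropriate level, the endpoint shown equals the highest concentration tested. Otherwise, values were interpolated linearly from a five-concentration, 48-hour dose response in 96-well plates. At the GI50, growth is halved.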 Active and inactive are the calls of the source. Rule as the data show it: active = GI50 up to about 1.1 µM and inactive = higher. A value given as a limit tells only on which side of the number the result lay.

Test systems include NCI-H23; SK-MEL-2; A498; K562; SNB-19; SW-620; OVCAR-3; KM12; HCT-15; ACHN; SN12C; HCC 2998; HOP-92; MOLT-4; M14; MDA-MB-231; OVCAR-5; Malme-3M; CAKI-1; UACC-62.
Common to all, as to test: NCI anticancer screen, dose series, 48 h

Regarding `COC1=CC(=O)c2c(cc(COP(N)(=O)N(CCCl)CCCl)n2C)C1=O` (stereo not given), the GI50 is 0.7 µM (active) in the assay on NCI-H23; 1.84 µM (inactive) in the assay on SK-MEL-2; 2.2 µM (inactive) with A498; 1.52 µM (inactive) with K562; 2.64 µM (inactive) in the assay with SNB-19; 0.158 µM (active) in the assay on SW-620. Also, the GI50 in the assay on OVCAR-3 is 0.342 µM (active); with KM12, 1.49 µM (inactive); with HCT-15, 1.13 µM; in the assay on ACHN it was < 0.0183 µM (active); with SN12C, < 0.0241 µM (active); in the assay with HCC 2998 it was 0.446 µM (active). The GI50 in the assay on HOP-92 is 1.41 µM (inactive); with MOLT-4, 0.0141 µM (active); with M14 it was 0.826 µM (active); in the assay with MDA-MB-231 it was 2.33 µM (inactive); in the assay with OVCAR-5, 1.26 µM (inactive); in the assay with Malme-3M, 1.4 µM (inactive). The GI50 in the assay on CAKI-1 was < 0.0158 µM (active); in the assay with UACC-62 it was 0.721 µM (active).
Turning to `CSc1ccc2c(c1)C(N1CCN(C)CC1)Cc1ccccc1S2` (stereo not given), the GI50 is 13.9 µM (inactive) with NCI-H23; 2.72 µM (inactive) with SK-MEL-2; 9.79 µM (inactive) with A498; 1.94 µM (inactive) with K562; 13.3 µM (inactive) with SNB-19; 6.01 µM (inactive) in the assay with SW-620. Further, the GI50 in the assay on OVCAR-3 was 8.91 µM (inactive); with KM12, 2.62 µM (inactive); with HCT-15, 4.15 µM; with ACHN, 3.25 µM (inactive); in the assay on SN12C it was 6.28 µM (inactive); in the assay with HCC 2998, 11.1 µM (inactive). The GI50 is 1.49 µM (inactive) in the assay with HOP-92; 2.47 µM (inactive) in the assay with MOLT-4; 1.95 µM (inactive) in the assay on M14; 3.47 µM (inactive) in the assay on MDA-MB-231; 2.67 µM (inactive) with OVCAR-5; 1.71 µM (inactive) in the assay with Malme-3M. Further, the results for the GI50 in the assay with CAKI-1 and with UACC-62 were 3.65 µM (inactive) and 2.05 µM (inactive), respectively.
`C[C@H](c1ccccc1)n1c(N)c(-c2nc3ccccc3s2)c2ccc([N+](=O)[O-])cc2c1=O`: the GI50 with NCI-H23 was 1.87 µM (inactive); with SK-MEL-2, 2.94 µM (inactive); with A498 it was 11 µM (inactive); in the assay with K562 it was 1.23 µM (inactive); in the assay on SNB-19, 3.49 µM (inactive); in the assay on SW-620, 4.14 µM (inactive). Further, the GI50 was 4.57 µM (inactive) in the assay with OVCAR-3; 4.45 µM (inactive) in the assay with KM12; 4.76 µM in the assay with HCT-15; 10.1 µM (inactive) in the assay with ACHN; 8.32 µM (inactive) with SN12C; 4.4 µM (inactive) with HCC 2998. In addition, the GI50 in the assay on HOP-92 is 1.59 µM (inactive); with MOLT-4 it was 2.32 µM (inactive); in the assay with M14 it was 14.8 µM (inactive); in the assay on MDA-MB-231, 3.89 µM (inactive); with OVCAR-5, 11.5 µM (inactive); in the assay with Malme-3M it was 12.9 µM (inactive). Further, the GI50 was 15.4 µM (inactive) in the assay on CAKI-1 and 4.33 µM (inactive) in the assay with UACC-62.
Regarding `O=C(NC(=O)c1c(Cl)nc2sccn12)Nc1ccc(Cl)cc1`, the GI50 with NCI-H23 is 33.5 µM (inactive); with SK-MEL-2, 59.3 µM (inactive); with A498 it was 49.3 µM (inactive); in the assay on K562, > 100 µM (inactive); in the assay with SNB-19 it was 28.4 µM (inactive); in the assay on SW-620 it was > 100 µM (inactive). Also, the GI50 in the assay on OVCAR-3 is 71.4 µM (inactive); in the assay with KM12, > 93.5 µM (inactive); in the assay with HCT-15 it was more than 96.4 µM; in the assay on ACHN, 77.4 µM (inactive); in the assay with SN12C, 86.5 µM (inactive); in the assay with HCC 2998, 54.1 µM (inactive). Moreover, the GI50 in the assay on HOP-92 was 25.1 µM (inactive); in the assay on MOLT-4 it was > 100 µM (inactive); in the assay on M14, 78.3 µM (inactive); in the assay on MDA-MB-231, 25.5 µM (inactive); with OVCAR-5, > 100 µM (inactive); in the assay on Malme-3M, 84.3 µM (inactive). The figures for the GI50 with CAKI-1 and in the assay with UACC-62 were > 83.9 µM (inactive) and > 100 µM (inactive), respectively.
In the case of `Cn1c(=O)nc2n(CCO)c(-c3ccccc3)c(-c3ccccc3)nc-2c1=O`, the GI50 in the assay on NCI-H23, in the assay on SK-MEL-2, with A498, in the assay on K562, in the assay on SNB-19 and in the assay with SW-620 was > 100 µM (inactive) each time. Besides, the GI50 is > 100 µM (inactive) with OVCAR-3; > 100 µM (inactive) with KM12; more than 100 µM in the assay on HCT-15; > 100 µM (inactive) with ACHN; > 100 µM (inactive) in the assay on SN12C; > 100 µM (inactive) in the assay on HCC 2998. For the same molecule, the GI50 with HOP-92, with MOLT-4, in the assay on M14, in the assay on MDA-MB-231, in the assay on OVCAR-5 and with Malme-3M was > 100 µM (inactive) each time. The GI50 with CAKI-1 and with UACC-62 was > 100 µM (inactive) each time.
As to `COc1cc2cc(C(=O)N3CC(CCl)c4c3cc(NC(=O)C(C)Nc3c([N+](=O)[O-])cc(C(=O)NCCN(C)C)cc3[N+](=O)[O-])c3ccccc43)[nH]c2c(OC)c1OC` (stereo not given), the GI50 was < 0.01 µM (active) with NCI-H23; 0.0675 µM (active) in the assay with SK-MEL-2; 0.212 µM (active) with A498; 0.0363 µM (active) in the assay on K562; 0.14 µM (active) with SNB-19; 0.117 µM (active) in the assay with SW-620. Besides, the GI50 is 0.201 µM (active) with OVCAR-3; 0.119 µM (active) in the assay with KM12; 0.164 µM in the assay on HCT-15; 0.032 µM (active) with ACHN; 0.105 µM (active) with SN12C; 0.0315 µM (active) with HCC 2998. Besides, the GI50 with HOP-92 is 0.0285 µM (active); with MOLT-4, 0.0244 µM (active); with M14, 0.187 µM (active); in the assay on MDA-MB-231, 0.18 µM (active); with OVCAR-5 it was 0.0555 µM (active); in the assay on Malme-3M it was 0.129 µM (active). Besides, the GI50 in the assay with CAKI-1 is 0.22 µM (active); in the assay with UACC-62, 0.0586 µM (active).
Regarding `O=C1CC(NC(=O)C(F)(F)F)c2c(Br)sc(N3CCNCC3)c21` (stereo not given), the GI50 was > 100 µM (inactive) in the assay with NCI-H23; 13.2 µM (inactive) in the assay on SK-MEL-2; > 100 µM (inactive) in the assay with A498; > 100 µM (inactive) in the assay with K562; > 100 µM (inactive) with SNB-19; > 100 µM (inactive) in the assay with SW-620. Further, the GI50 with OVCAR-3 is > 100 µM (inactive); with KM12 it was > 100 µM (inactive); with HCT-15, more than 100 µM; with ACHN, > 100 µM (inactive); in the assay on SN12C it was > 100 µM (inactive); in the assay with HCC 2998, > 100 µM (inactive). Further, the GI50 was 53 µM (inactive) in the assay on HOP-92; > 100 µM (inactive) in the assay with MOLT-4; > 100 µM (inactive) in the assay with M14; > 100 µM (inactive) with MDA-MB-231; > 100 µM (inactive) with OVCAR-5; > 100 µM (inactive) with Malme-3M. The GI50 in the assay on CAKI-1 and with UACC-62 was > 100 µM (inactive) throughout.
`COc1cc2ccnc3c2c(c1O)N(C)C=C3`: the GI50 in the assay on NCI-H23 was 17.1 µM (inactive); with SK-MEL-2, 17.7 µM (inactive); in the assay on A498, 15.9 µM (inactive); in the assay on K562, 4.68 µM (inactive); in the assay with SNB-19, 25.5 µM (inactive); with SW-620, 12 µM (inactive). For the same molecule, the GI50 in the assay with OVCAR-3 is 4.62 µM (inactive); in the assay on KM12, 19.4 µM (inactive); with HCT-15 it was 15 µM; in the assay on ACHN, 9.48 µM (inactive); with SN12C it was 13.5 µM (inactive); with HCC 2998, 23 µM (inactive). Moreover, the GI50 was 21.2 µM (inactive) in the assay with HOP-92; 4.26 µM (inactive) with MOLT-4; 17 µM (inactive) with M14; 22.1 µM (inactive) in the assay with MDA-MB-231; 16.7 µM (inactive) in the assay on OVCAR-5; 6.12 µM (inactive) with Malme-3M. The GI50 in the assay with CAKI-1 was 4.92 µM (inactive); in the assay on UACC-62 it was 9.93 µM (inactive).
Take `CCOC(=O)[C@@H]1[C@@H]2NC(=O)N[C@@]1(C)Oc1ccccc12`: the GI50 with NCI-H23, in the assay on SK-MEL-2, in the assay with A498, in the assay with K562, in the assay on SNB-19 and in the assay on SW-620 was > 100 µM (inactive) each time. Besides, the GI50 with OVCAR-3 was > 100 µM (inactive); with KM12, > 100 µM (inactive); in the assay with HCT-15, more than 100 µM; with ACHN it was > 100 µM (inactive); in the assay with SN12C it was > 100 µM (inactive); in the assay on HCC 2998, > 100 µM (inactive). Also, the GI50 in the assay on HOP-92, with MOLT-4, with M14, in the assay on MDA-MB-231, with OVCAR-5 and in the assay on Malme-3M was > 100 µM (inactive) throughout. Besides, the GI50 in the assay on CAKI-1 and in the assay with UACC-62 was > 100 µM (inactive) throughout.
On to `C=C1C(=O)O[C@H]2[C@H]3O[C@@H](C[C@@H]12)[C@](C)(O)CC[C@@H]1O[C@@]1(C)CCC[C@H]3C`, for which the GI50 was 16.4 µM (inactive) in the assay with NCI-H23; 15.9 µM (inactive) in the assay with SK-MEL-2; 23.6 µM (inactive) with A498; 23 µM (inactive) in the assay on K562; 36.3 µM (inactive) with SNB-19; 19.2 µM (inactive) in the assay with SW-620. Besides, the GI50 was 16.7 µM (inactive) in the assay with OVCAR-3; 20 µM (inactive) in the assay on KM12; 16.9 µM in the assay on HCT-15; 15.5 µM (inactive) in the assay on ACHN; 20.3 µM (inactive) in the assay with SN12C; 25.8 µM (inactive) in the assay on HCC 2998. The GI50 in the assay on HOP-92 is 16.4 µM (inactive); with MOLT-4, 30.3 µM (inactive); with M14 it was 12 µM (inactive); with MDA-MB-231 it was 25.1 µM (inactive); in the assay with OVCAR-5, 36.2 µM (inactive); in the assay on Malme-3M, 12 µM (inactive). Besides, the figures for the GI50 in the assay on CAKI-1 and in the assay on UACC-62 were 14.2 µM (inactive) and 16.5 µM (inactive), respectively.
